≈ marks a conversion by molar mass, not a printed value. Positions of bridges follow the written chain, without caps; N, C: chain ends. Non-standard residues stand in square brackets, D forms with d. Residues, ends and D or L forms follow the SMILES beside them. *: point of attachment. Benzoyl(3,5-Cl2) = O=C(c1cc(Cl)cc(Cl)c1)*; X3 = O=C(c1ccc(Cl)cc1Cl)*; Dab = NCC[C@H](N)C(=O)O; Abu = CC[C@H](N)C(=O)O; Dap = NC[C@H](N)C(=O)O
Key:
[1] = system: P. aeruginosa ATCC 27853; experiment: In vivo efficacy in mouse blood infection model (neutropenic Swiss mice); conditions: compound, free base 4 mg/kg intravenously 2 h after inoculation, blood at 4 h
How it was run: (§1)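 Activity expressed as Δlog10 CFU/mL blood, treated minus saline control, 4 h after a single 4 mg/kg (free base) i.v. dose given 2 h post-infection. Bloodstream infection from i.v. early log-phase inoculum in Swiss mice made neutropenic by i.p. cyclophosphamide on days −4 (150 mg/kg) and −1 (100 mg/kg).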

[2] = system: K. pneumoniae FADDI-KP032; experiment: as above; conditions: compound, free base 4 mg/kg intravenously 2 h after inoculation, blood at 4 h
How it was run: as §1

[3] = system: A. baumannii ATCC 19606; experiment: as above; conditions: compound, free base 4 mg/kg intravenously 2 h after inoculation, blood at 4 h
How it was run: as §1

[4] = system: Enterobacter cloacae; conditions: broth microdilution in CAMHB; for Minimum inhibitory concentration, Ec FADDI-EC001: Enterobacter cloacae FADDI-EC001; for Minimum inhibitory concentration, Ec FADDI-EC003: Enterobacter cloacae FADDI-EC003; for Minimum inhibitory concentration, Ec FADDI-EC006: Enterobacter cloacae FADDI-EC006
How it was run: (§2)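 Lipopeptide TFA salts are serially diluted in cation-adjusted Mueller-Hinton broth and inoculated per the CLSI M100-S18 broth microdilution method. The MIC is then recorded, with polymyxin B sulphate included as a control.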

[5] = system: Pseudomonas aeruginosa; conditions: for MIC: P. aeruginosa ATCC 27853; for Minimum inhibitory concentration, Pa ATCC 27853: Pseudomonas aeruginosa ATCC 27853; for Minimum inhibitory concentration, Pa ATCC 27853 / Minimum inhibitory concentration, Pa FADDI-PA022 / Minimum inhibitory concentration, Pa FADDI-PA025: broth microdilution in CAMHB; for Minimum inhibitory concentration, Pa FADDI-PA022: Pseudomonas aeruginosa FADDI-PA022; for Minimum inhibitory concentration, Pa FADDI-PA025: Pseudomonas aeruginosa FADDI-PA025
How it was run: as §2

[6] = system: Klebsiella pneumoniae; conditions: K. pneumoniae FADDI-KP032
How it was run: as §2

[7] = system: Acinetobacter baumannii; conditions: for MIC: A. baumannii ATCC 19606; for Minimum inhibitory concentration, Ab A ATCC 17978: Acinetobacter baumannii ATCC 17978; for Minimum inhibitory concentration, Ab A ATCC 17978 / Minimum inhibitory concentration, Ab ATCC 19606 / Minimum inhibitory concentration, Ab FADDI-AB034: broth microdilution in CAMHB; for Minimum inhibitory concentration, Ab ATCC 19606: Acinetobacter baumannii ATCC 19606; for Minimum inhibitory concentration, Ab FADDI-AB034: Acinetobacter baumannii FADDI-AB034
How it was run: as §2

[8] = Nephrotoxicity in a mouse model (kidney histology score); format: in vivo; conditions: mice, subcutaneous 12 mg base/kg, 6 doses in one day every 2 h; for Max Overall Kidney Histology Score: kidney ~20 h after last dose, product of percentage score and grade score; for Max Kidney Histology Score: semiquantitative score (SQS) 0 to +5
Procedure: PMB sulphate (Batch 20120204) and colistin sulphate (Batch 20120719) were supplied by Betapharma (Shanghai Co., Ltd, China). […] At ˜20 h after the last dose, mice were euthanised by inhalation of an overdose of isoflurane. […] The formalin-fixed kidneys were then sent to the Australian Phenomics Network-Histopathology and Organ Pathology (The University of Melbourne, Parkville, VIC, Australia) for histological examination. The samples were examined by a pathologist who was blind to the treatment groups. Lesions were rated as follows: mild acute tubular damage with tubular dilation, prominent nuclei and a few pale […] tubular casts (Grade 1); severe acute tubular damage with necrosis of tubular epithelial cells and numerous tubular casts (Grade 2); acute cortical necrosis/infarction of tubules and glomeruli with or without papillary necrosis (Grade 3). […] The overall kidney histology score was calculated as the product of percentage score and grade score. […] These scores were assigned as follows: […] SQS+3=moderate damage (overall score, 30 to <45); […]

| SMILES | Δ log (Treated-Control at 4 h) [1] | Δ log (Treated-Control at 4 h) [2] | Δ log (Treated-Control at 4 h) [3] | Minimum inhibitory concentration, Ec FADDI-EC001 [4] | Minimum inhibitory concentration, Ec FADDI-EC003 [4] | Minimum inhibitory concentration, Ec FADDI-EC006 [4] | MIC [5] | Minimum inhibitory concentration, Pa ATCC 27853 [5] | Minimum inhibitory concentration, Pa FADDI-PA022 [5] | Minimum inhibitory concentration, Pa FADDI-PA025 [5] | MIC [6] | MIC [7] | Minimum inhibitory concentration, Ab A ATCC 17978 [7] | Minimum inhibitory concentration, Ab ATCC 19606 [7] | Minimum inhibitory concentration, Ab FADDI-AB034 [7] | Max Overall Kidney Histology Score [8] | Max Kidney Histology Score [8] |
| --- | --- | --- | --- | --- | --- | --- | --- | --- | --- | --- | --- | --- | --- | --- | --- | --- | --- |
| CC[C@@H]1NC(=O)[C@@H](CC(C)C)NC(=O)[C@H](CCN)NC(=O)[C@@H](NC(=O)[C@H](CN)NC(=O)[C@@H](NC(=O)[C@H](CCN)NC(=O)c2ccc(Cl)cc2Cl)[C@@H](C)O)CCNC(=O)[C@H]([C@@H](C)O)NC(=O)[C@H](CCN)NC(=O)[C@H](CCN)NC1=O [Compound 82] (X3-[Dab]T[Dap][Dab][Dab][dL][Abu][Dab][Dab]T; lactam 4-C) | −3.44 log10 CFU/mL | −3.33 log10 CFU/mL | −1.44 log10 CFU/mL | <0.125 µg/mL | <0.125 µg/mL | <0.125 µg/mL | 0.5 µg/mL (≈ 0.431 µM) | 0.5 µg/mL (≈ 0.431 µM) | 0.5 µg/mL (≈ 0.431 µM) | 1 µg/mL (≈ 0.862 µM) | <0.125 µg/mL | 0.5 µg/mL (≈ 0.431 µM) | 0.5 µg/mL (≈ 0.431 µM) | 0.5 µg/mL (≈ 0.431 µM) | 0.25 µg/mL (≈ 0.215 µM) | 0.0 | 0 (SQS 0=no significant change (overall score, <1)) |
| CC[C@@H]1NC(=O)[C@@H](CC(C)C)NC(=O)[C@H](CCN)NC(=O)[C@@H](NC(=O)[C@H](CN)NC(=O)[C@@H](NC(=O)[C@H](CCN)NC(=O)c2cc(Cl)cc(Cl)c2)[C@@H](C)O)CCNC(=O)[C@H]([C@@H](C)O)NC(=O)[C@H](CCN)NC(=O)[C@H](CCN)NC1=O [Compound 96] ({Benzoyl(3,5-Cl2)}-[Dab]T[Dap][Dab][Dab][dL][Abu][Dab][Dab]T; lactam 4-C) | −3.45 log10 CFU/mL | −2.75 log10 CFU/mL | −2.42 log10 CFU/mL | 1 µg/mL (≈ 0.862 µM) | 1 µg/mL (≈ 0.862 µM) | 0.5 µg/mL (≈ 0.431 µM) | 0.25 µg/mL (≈ 0.215 µM) | 0.25 µg/mL (≈ 0.215 µM) | 0.25 µg/mL (≈ 0.215 µM) | 0.5 µg/mL (≈ 0.431 µM) | <0.125 µg/mL | 0.5 µg/mL (≈ 0.431 µM) | 0.25 µg/mL (≈ 0.215 µM) | 0.5 µg/mL (≈ 0.431 µM) | 0.25 µg/mL (≈ 0.215 µM) | 2.0 | +1 (SQS+1=mild damage (overall score, 1 to <15)) |

Source: patent publication USRE48335E1, “Polymyxin derivatives as antimicrobial compounds” (priority 2014, dated 2020)
